Test results taken from patent publication US20230416256A1, “SMALL MOLECULE INHIBITORS OF NF-kB INDUCING KINASE” (Janssen Pharmaceutica NV, priority 2020, published 2023).
Read-outs that look alike come from different tables or passages of the source.

What was measured:
[1] = target: recombinant human NF-kappaB-inducing kinase (NIK/MAP3K14) (Homo sapiens, UniProt Q99558); experiment: Inhibition of auto-phosphorylation of recombinant human NIK/MAP3K14 activity (AlphaScreen); format: biochemical; conditions: GST-tagged NIK/MAP3K14 1 nM, 5 μM ATP, 2 h at 25° C.; average of values obtained
Sequence of recombinant human NF-kappaB-inducing kinase (NIK/MAP3K14) (Q99558 whole entry): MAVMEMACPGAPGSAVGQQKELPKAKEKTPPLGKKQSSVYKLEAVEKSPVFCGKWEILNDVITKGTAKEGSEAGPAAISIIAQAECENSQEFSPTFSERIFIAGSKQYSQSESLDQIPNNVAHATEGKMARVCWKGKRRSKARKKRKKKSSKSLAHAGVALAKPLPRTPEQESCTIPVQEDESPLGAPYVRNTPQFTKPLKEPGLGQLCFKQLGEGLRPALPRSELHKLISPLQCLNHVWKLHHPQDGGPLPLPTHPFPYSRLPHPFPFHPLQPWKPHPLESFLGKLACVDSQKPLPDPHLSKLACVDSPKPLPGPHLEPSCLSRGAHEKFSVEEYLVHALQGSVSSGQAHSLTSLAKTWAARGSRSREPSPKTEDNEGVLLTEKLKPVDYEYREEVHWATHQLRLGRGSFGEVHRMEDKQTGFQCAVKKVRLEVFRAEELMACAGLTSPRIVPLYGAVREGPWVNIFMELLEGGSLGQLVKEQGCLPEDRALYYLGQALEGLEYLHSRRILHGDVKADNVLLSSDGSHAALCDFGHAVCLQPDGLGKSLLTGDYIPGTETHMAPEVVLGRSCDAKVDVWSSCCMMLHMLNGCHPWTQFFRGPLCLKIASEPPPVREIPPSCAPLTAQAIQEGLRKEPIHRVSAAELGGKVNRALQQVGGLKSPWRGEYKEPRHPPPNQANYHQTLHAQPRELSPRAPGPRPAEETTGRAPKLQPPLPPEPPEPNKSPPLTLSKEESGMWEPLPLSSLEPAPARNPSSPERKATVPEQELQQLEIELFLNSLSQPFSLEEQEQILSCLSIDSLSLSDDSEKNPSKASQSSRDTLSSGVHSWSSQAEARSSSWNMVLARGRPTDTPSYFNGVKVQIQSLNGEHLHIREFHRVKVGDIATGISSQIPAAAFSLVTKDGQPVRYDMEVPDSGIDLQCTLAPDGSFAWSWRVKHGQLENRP
Procedure, shortened: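 GST-tagged NIK (1 nM) auto-phosphorylated for 2 h at 25 °C with 5 μM ATP in 50 mM Tris pH 7.5, 5 mM MgCl2, 0.7% DMSO. Phospho-Ser176/180 was detected by AlphaScreen using an anti-phospho-IKK antibody. IC50 came from sigmoidal fits of % inhibition versus high (full activity) and low (no ATP) controls.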

[2] = tested on: p-IKKα levels in L363 (NIK translocated multiple myeloma) cells; experiment: Effect of compounds on p-IKKα levels in L363 cells (AlphaLISA SureFire Ultra); format: cell-based, human; conditions: 10 μM MG132, 6 h, average of values obtained, read-out: Assay 2 IC50
Procedure, shortened: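 L363 cells were BAFF-stimulated overnight (250 ng/ml) in DMEM/0.5% BSA, then exposed to an 11-point 1:3 compound series (0.3% DMSO) with BAFF and 10 μM MG132 for 6 h at 37 °C. p-IKKα (Ser176/180) was measured by AlphaLISA SureFire Ultra. IC50 was fitted from % inhibition normalized to stimulated and unstimulated controls.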

[3] = Homo sapiens, L-363, 6 h, 250 ng/ml BAFF stimulated
[4] = Homo sapiens, L-363, 250 ng/ml BAFF stimulated

Row | IC50 [2, 3] | IC50 ([2]; 250 ng/ml BAFF stimulated) | Structure (SMILES) | IC50 [1] | IC50 [2, 4]
1 | > 500 nM | – | O[C@@]1(c2cccc(-c3csc(-c4n[nH]c5nccnc45)n3)c2)CCn2ccnc21 [Example 76, (R)-7-(3-(2-(1H-Pyrazolo[3,4-b]pyrazin-3-yl)thiazol-4-yl)phenyl)-6,7-dihydro-5H-pyrrolo[1,2-a]imidazol-7-ol] | 100 to 500 nM | –
2 | ≤ 100 nM | – | Cc1cnc2[nH]cc(-c3nc(-c4cccc([C@]5(O)CCn6ccnc65)c4)cs3)c2n1 [Example 81, (R)-7-(3-(2-(2-Methyl-5H-pyrrolo[2,3-b]pyrazin-7-yl)thiazol-4-yl)phenyl)-6,7-dihydro-5H-pyrrolo[1,2-a]imidazol-7-ol] | ≤ 100 nM | –
3 | > 500 nM | – | Cc1cnc2[nH]cc(-c3nc(-c4cccc([C@@]5(O)CCn6ccnc65)c4)cs3)c2n1 [Example 82, (S)-7-(3-(2-(2-Methyl-5H-pyrrolo[2,3-b]pyrazin-7-yl)thiazol-4-yl)phenyl)-6,7-dihydro-5H-pyrrolo[1,2-a]imidazol-7-ol] | 100 to 500 nM | –
4 | 100 to 500 nM | – | Cc1cnc2c(-c3nc(-c4cccc([C@]5(O)CCn6ccnc65)c4)cs3)c[nH]c2n1 [Example 83, (R)-7-(3-(2-(3-Methyl-5H-pyrrolo[2,3-b]pyrazin-7-yl)thiazol-4-yl)phenyl)-6,7-dihydro-5H-pyrrolo[1,2-a]imidazol-7-ol] | ≤ 100 nM | –
5 | > 500 nM | – | O[C@]1(c2cccc(-c3nc(-c4c[nH]c5ncccc45)cs3)c2)CCn2ccnc21 [Example 84, (S)-7-(3-(4-(1H-Pyrrolo[2,3-b]pyridin-3-yl)thiazol-2-yl)phenyl)-6,7-dihydro-5H-pyrrolo[1,2-a]imidazol-7-ol] | 100 to 500 nM | –
6 | – | > 500 nM | O[C@@]1(c2cccc(-c3csc(-c4c[nH]c5ncccc45)n3)c2)COc2cccnc21 [Example 85, (R)-3-(3-(2-(1H-Pyrrolo[2,3-b]pyridin-3-yl)thiazol-4-yl)phenyl)-2,3-dihydrofuro[3,2-b]pyridin-3-ol] | > 500 nM | –
7 | – | > 500 nM | O[C@@]1(c2cccc(-c3csc(-c4c[nH]c5nccnc45)n3)c2)COc2cccnc21 [Example 86, (R)-3-(3-(2-(5H-Pyrrolo[2,3-b]pyrazin-7-yl)thiazol-4-yl)phenyl)-2,3-dihydrofuro[3,2-b]pyridin-3-ol] | > 500 nM | –
8 | > 500 nM | – | Cc1ccnc2[nH]cc(-c3nc(-c4cccc([C@]5(O)CCn6ccnc65)c4)cs3)c12 [Example 87, (R)-7-(3-(2-(4-Methyl-1H-pyrrolo[2,3-b]pyridin-3-yl)thiazol-4-yl)phenyl)-6,7-dihydro-5H-pyrrolo[1,2-a]imidazol-7-ol] | ≤ 100 nM | –
9 | > 500 nM | – | O[C@@]1(c2cccc(-c3csc(-c4c[nH]c5nnccc45)n3)c2)CCn2ccnc21 [Example 88, (R)-7-(3-(2-(7H-pyrrolo[2,3-c]pyridazin-5-yl)thiazol-4-yl)phenyl)-6,7-dihydro-5H-pyrrolo[1,2-a]imidazol-7-ol] | ≤ 100 nM | –
10 | – | – | CN1C(=O)[C@@](O)(c2cccc(-c3csc(-c4c[nH]c5ncccc45)n3)c2)c2ncccc21 [Example 91, (R)-3-(3-(2-(1H-Pyrrolo[2,3-b]pyridin-3-yl)thiazol-4-yl)phenyl)-3-hydroxy-1-methyl-1,3-dihydro-2H-pyrrolo[3,2-b]pyridin-2-one] | > 500 nM | > 500 nM
11 | – | – | CN1C(=O)[C@](O)(c2cccc(-c3csc(-c4c[nH]c5ncccc45)n3)c2)c2ncccc21 [Example 92, (S)-3-(3-(2-(1H-Pyrrolo[2,3-b]pyridin-3-yl)thiazol-4-yl)phenyl)-3-hydroxy-1-methyl-1,3-dihydro-2H-pyrrolo[3,2-b]pyridin-2-one] | ≤ 100 nM | > 500 nM
12 | – | – | CN1CC[C@@](O)(c2cccc(-c3coc(-c4c[nH]c5ncccc45)c3)c2)C1=O [Example 93, (R)-3-(3-(5-(1H-Pyrrolo[2,3-b]pyridin-3-yl)furan-3-yl)phenyl)-3-hydroxy-1-methylpyrrolidin-2-one] | ≤ 100 nM | > 500 nM
13 | – | – | CN1CC[C@@](O)(c2cccc(-c3csc(-c4c[nH]c5ncc(F)c(F)c45)n3)c2)C1=O [Example 94, (R)-3-(3-(2-(4,5-Difluoro-1H-pyrrolo[2,3-b]pyridin-3-yl)thiazol-4-yl)phenyl)-3-hydroxy-1-methylpyrrolidin-2-one] | ≤ 100 nM | > 500 nM
14 | – | – | CN1CC[C@@](O)(c2cccc(-c3csc(-c4c[nH]c5ncc(Cl)c(F)c45)n3)c2)C1=O [Example 95, (R)-3-(3-(2-(5-Chloro-4-fluoro-1H-pyrrolo[2,3-b]pyridin-3-yl)thiazol-4-yl)phenyl)-3-hydroxy-1-methylpyrrolidin-2-one] | ≤ 100 nM | > 500 nM
15 | > 500 nM | – | O[C@@]1(c2cccc(-c3csc(-c4c[nH]c5ncc(F)c(F)c45)n3)c2)CCn2ccnc21 [Example 96, (R)-7-(3-(2-(4,5-Difluoro-1H-pyrrolo[2,3-b]pyridin-3-yl)thiazol-4-yl)phenyl)-6,7-dihydro-5H-pyrrolo[1,2-a]imidazol-7-ol] | ≤ 100 nM | –
16 | 100 to 500 nM | – | O[C@@]1(c2cccc(-c3csc(-c4c[nH]c5ncc(Cl)c(F)c45)n3)c2)CCn2ccnc21 [Example 97, (R)-7-(3-(2-(5-Chloro-4-fluoro-1H-pyrrolo[2,3-b]pyridin-3-yl)thiazol-4-yl)phenyl)-6,7-dihydro-5H-pyrrolo[1,2-a]imidazol-7-ol] | ≤ 100 nM | –
17 | – | – | CN1CC[C@@](O)(c2cccc(-c3nc(-c4c[nH]c5ncccc45)sc3C#N)c2)C1=O [Example 98, (R)-4-(3-(3-Hydroxy-1-methyl-2-oxopyrrolidin-3-yl)phenyl)-2-(1H-pyrrolo[2,3-b]pyridin-3-yl)thiazole-5-carbonitrile] | > 500 nM | > 500 nM
18 | – | – | CN1CC[C@@](O)(c2cccc(-c3csc(-c4n[nH]c5ncccc45)n3)c2)C1=O [Example 100, (R)-3-(3-(2-(1H-Pyrazolo[3,4-b]pyridin-3-yl)thiazol-4-yl)phenyl)-3-hydroxy-1-methylpyrrolidin-2-one] | > 500 nM | > 500 nM
19 | > 500 nM | – | C[C@@]1(O)C[C@@](O)(c2cccc(-c3csc(-c4c[nH]c5ncccc45)n3)c2)c2ncccc21 [Example 106, (5R,7R)-7-(3-(2-(1H-Pyrrolo[2,3-b]pyridin-3-yl)thiazol-4-yl)phenyl)-5-methyl-6,7-dihydro-5H-cyclopenta[b]pyridine-5,7-diol] | > 500 nM | –
20 | – | – | CN1CC[C@@](O)(c2cccc(-c3csc(-c4c(F)[nH]c5ncc(F)cc45)n3)c2)C1=O [Example 110, (R)-3-(3-(2-(2,5-Difluoro-1H-pyrrolo[2,3-b]pyridin-3-yl)thiazol-4-yl)phenyl)-3-hydroxy-1-methylpyrrolidin-2-one] | 100 to 500 nM | > 500 nM
21 | – | – | CN1CC[C@@](O)(c2cccc(-c3csc(-n4ccc5nc(N)ccc54)n3)c2)C1=O [Example 112, (R)-3-(3-(2-(5-Amino-1H-pyrrolo[3,2-b]pyridin-1-yl)thiazol-4-yl)phenyl)-3-hydroxy-1-methylpyrrolidin-2-one] | > 500 nM | > 500 nM
22 | – | – | Cc1ccc2[nH]cc(-c3nc(-c4cccc([C@]5(O)CCN(C)C5=O)c4)cs3)c2n1 [Example 113, (R)-3-Hydroxy-1-methyl-3-(3-(2-(5-methyl-1H-pyrrolo[3,2-b]pyridin-3-yl)thiazol-4-yl)phenyl)pyrrolidin-2-one] | 100 to 500 nM | > 500 nM
23 | – | – | CN1CC[C@@](O)(c2cccc(-c3ccc(-c4c[nH]c5ncccc45)o3)c2)C1=O [Example 114, (R)-3-(3-(5-(1H-Pyrrolo[2,3-b]pyridin-3-yl)furan-2-yl)phenyl)-3-hydroxy-1-methylpyrrolidin-2-one] | ≤ 100 nM | 100 to 500 nM
24 | – | – | CN1CC[C@@](O)(c2cccc(-c3cc(-c4c[nH]c5ncccc45)co3)c2)C1=O [Example 115, (R)-3-(3-(4-(1H-Pyrrolo[2,3-b]pyridin-3-yl)furan-2-yl)phenyl)-3-hydroxy-1-methylpyrrolidin-2-one] | > 500 nM | > 500 nM
25 | – | – | CN1CC[C@@](O)(c2cccc(-c3coc(-c4c[nH]c5ncccc45)n3)c2)C1=O [Example 116, (R)-3-(3-(2-(1H-Pyrrolo[2,3-b]pyridin-3-yl)oxazol-4-yl)phenyl)-3-hydroxy-1-methylpyrrolidin-2-one] | ≤ 100 nM | > 500 nM
26 | – | – | CN1CC[C@@](O)(c2cccc(-c3cc(-c4c[nH]c5ncccc45)[nH]n3)c2)C1=O [Example 117, (R)-3-(3-(5-(1H-Pyrrolo[2,3-b]pyridin-3-yl)-1H-pyrazol-3-yl)phenyl)-3-hydroxy-1-methylpyrrolidin-2-one] | 100 to 500 nM | > 500 nM
27 | – | – | CN1CC[C@@](O)(c2cccc(-c3cc(-c4c[nH]c5ncccc45)nn3C)c2)C1=O [Example 118, (R)-3-Hydroxy-1-methyl-3-(3-(1-methyl-3-(1H-pyrrolo[2,3-b]pyridin-3-yl)-1H-pyrazol-5-yl)phenyl)pyrrolidin-2-one] | 100 to 500 nM | > 500 nM
28 | – | – | Cc1c(-c2c[nH]c3ncccc23)n[nH]c1-c1cccc([C@]2(O)CCN(C)C2=O)c1 [Example 119, (R)-3-Hydroxy-1-methyl-3-(3-(4-methyl-3-(1H-pyrrolo[2,3-b]pyridin-3-yl)-1H-pyrazol-5-yl)phenyl)pyrrolidin-2-one] | > 500 nM | > 500 nM
